The target of data set [1] is 3',5'-cyclic-AMP phosphodiesterase 4B (Homo sapiens, UniProt Q07343). In words: Inhibition of human recombinant PDE4B1 using FAM-cAMP as substrate at 10 uM measured after 1 hr by IMAP TR-FRET assay. (Time-resolved FRET reads energy transfer from a long-lived donor to a nearby acceptor.)
The target in data set [2] is T1, 3',5'-cyclic-AMP phosphodiesterase 4D (Homo sapiens, UniProt Q08499). The data set can be described thus: Inhibition of human recombinant PDE4D3 using FAM-cAMP as substrate at 10 uM measured after 1 hr by IMAP TR-FRET assay.
In data set [3] the target is 3',5'-cyclic-AMP phosphodiesterase 4C (Homo sapiens, UniProt Q08493). The data set can be described thus: Inhibition of human recombinant PDE4C using FAM-cAMP as substrate at 10 uM measured after 1 hr by IMAP TR-FRET assay.
A short description of data set [4]: Chemical stability of the compound in KCl/HCl buffer at pH 2.0 measured upto 120 mins by HPLC-DAD analysis. The following applies: pH 2, 2 h.
Data set [5] is filed under the species Homo sapiens. The data set can be described thus: Inhibition of human recombinant PDE4A1A using FAM-cAMP as substrate at 10 uM measured after 1 hr by IMAP TR-FRET assay.
A short description of data set [6]: Chemical stability of the compound in phosphate buffer at pH 7.4 measured upto 120 mins by HPLC-DAD analysis. The following applies: pH 7.4, 2 h. The class given is physicochemical.
For data set [7] the following is noted: pampa, 8 h.
The test system of data set [8] is Trachea. In words: […] activity in non-sensitized guinea pig-derived trachea assessed as decrease in CCh-induced tracheal tonic contraction in absence of functional epithelium treated with compound after contraction stabilised. The class given is tissue-based. The following applies: Cavia porcellus.
Data set [9] has as its system Trachea. The data set can be described thus: […] activity in OVA-sensitized guinea pig-derived trachea assessed as decrease in CCh-induced tracheal tonic contraction in absence of functional epithelium treated with compound after contraction stabilised. The class given is tissue-based. The following applies: Cavia porcellus.
Data set [10] has as its system Trachea. The data set can be described thus: […] activity in non-sensitized guinea pig-derived trachea assessed as decrease in CCh-induced tracheal tonic contraction in presence of functional epithelium. The class given is tissue-based. The following applies: Cavia porcellus.
Data set [11] has as its system Trachea. In words: […] activity in OVA-sensitized guinea pig-derived trachea assessed as decrease in CCh-induced tracheal tonic contraction in presence of functional epithelium treated with compound after contraction stabilised. The class given is tissue-based. The following applies: Cavia porcellus.
The next data set can be described thus: in vitro. As to conditions: PAMPA.
The subject of data set [12] is Mus musculus. In words: Antiinflammatory activity against A/J mouse assessed as decrease in LPS-induced airway hyperreactivity at 25 umol/kg, po treated via gavage for 1 hr before LPS stimulation measured after 24 hrs by whole body plethysmography relative to control. The class given is functional. The following applies: 25 h.
Data set [13] addresses T1, 3',5'-cyclic-AMP phosphodiesterase 4D. In words: Inhibition of human recombinant PDE4D3 using FAM-cAMP as substrate measured after 1 hr by IMAP TR-FRET assay relative to control.
Data set [14] relates to Mus musculus. In words: Antiinflammatory activity against A/J mouse assessed as decrease in LPS-induced TNFalpha production in lungs at 6.25 umol/kg, po treated via gavage for 1 hr before LPS stimulation and measured after 24 hrs by ELISA relative to control. The class given is functional. The following applies: 25 h. Background: An ELISA detects its analyte on a solid surface through an enzyme-linked reagent.

For data set [15], the species on record is Homo sapiens. The data set can be described thus: Inhibition of human recombinant PDE4A1A using FAM-cAMP as substrate measured after 1 hr by IMAP TR-FRET assay relative to control.
In data set [16] the test system is Mus musculus. In words: Antiinflammatory activity against A/J mouse assessed as decrease in LPS-induced TNFalpha production in lungs at 25 umol/kg, po treated via gavage for 1 hr before LPS stimulation and measured after 24 hrs by ELISA relative to control. The class given is functional. The following applies: 25 h.
Data set [17] addresses T1, 3',5'-cyclic-AMP phosphodiesterase 4D. The data set can be described thus: Inhibition of human recombinant PDE4D3 using FAM-cAMP as substrate measured after 1 hr by IMAP TR-FRET assay.
For data set [18], the system named is Mus musculus. In words: Antiinflammatory activity against A/J mouse assessed as decrease in LPS-induced airway hyperreactivity at 6.25 umol/kg, po treated via gavage for 1 hr before LPS stimulation measured after 24 hrs by whole body plethysmography relative to control. The class given is functional. As to conditions: 25 h.
Data set [19] in a line: Inhibition of human recombinant PDE4A1A using FAM-cAMP as substrate measured after 1 hr by IMAP TR-FRET assay.

3',5'-cyclic-AMP phosphodiesterase 4B, sequence (Q07343 whole entry): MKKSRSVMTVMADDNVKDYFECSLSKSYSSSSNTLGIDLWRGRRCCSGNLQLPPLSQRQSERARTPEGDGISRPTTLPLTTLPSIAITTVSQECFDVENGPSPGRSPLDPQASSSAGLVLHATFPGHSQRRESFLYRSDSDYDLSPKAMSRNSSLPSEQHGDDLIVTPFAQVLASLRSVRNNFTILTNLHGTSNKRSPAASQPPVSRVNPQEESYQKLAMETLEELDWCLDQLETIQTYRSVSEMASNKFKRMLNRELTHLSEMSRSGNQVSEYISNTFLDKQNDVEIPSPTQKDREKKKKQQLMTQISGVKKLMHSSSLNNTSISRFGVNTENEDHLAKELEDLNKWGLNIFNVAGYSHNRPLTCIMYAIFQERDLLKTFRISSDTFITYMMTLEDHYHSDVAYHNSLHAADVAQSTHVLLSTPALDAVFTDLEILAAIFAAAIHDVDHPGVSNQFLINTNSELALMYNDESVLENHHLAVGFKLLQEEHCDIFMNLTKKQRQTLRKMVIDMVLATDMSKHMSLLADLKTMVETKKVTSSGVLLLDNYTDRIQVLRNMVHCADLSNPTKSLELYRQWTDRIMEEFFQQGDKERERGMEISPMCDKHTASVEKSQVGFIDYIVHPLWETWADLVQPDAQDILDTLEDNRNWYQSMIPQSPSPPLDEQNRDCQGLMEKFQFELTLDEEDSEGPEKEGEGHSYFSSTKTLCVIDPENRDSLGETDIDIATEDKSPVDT
T1 sequence (Q08499 whole entry): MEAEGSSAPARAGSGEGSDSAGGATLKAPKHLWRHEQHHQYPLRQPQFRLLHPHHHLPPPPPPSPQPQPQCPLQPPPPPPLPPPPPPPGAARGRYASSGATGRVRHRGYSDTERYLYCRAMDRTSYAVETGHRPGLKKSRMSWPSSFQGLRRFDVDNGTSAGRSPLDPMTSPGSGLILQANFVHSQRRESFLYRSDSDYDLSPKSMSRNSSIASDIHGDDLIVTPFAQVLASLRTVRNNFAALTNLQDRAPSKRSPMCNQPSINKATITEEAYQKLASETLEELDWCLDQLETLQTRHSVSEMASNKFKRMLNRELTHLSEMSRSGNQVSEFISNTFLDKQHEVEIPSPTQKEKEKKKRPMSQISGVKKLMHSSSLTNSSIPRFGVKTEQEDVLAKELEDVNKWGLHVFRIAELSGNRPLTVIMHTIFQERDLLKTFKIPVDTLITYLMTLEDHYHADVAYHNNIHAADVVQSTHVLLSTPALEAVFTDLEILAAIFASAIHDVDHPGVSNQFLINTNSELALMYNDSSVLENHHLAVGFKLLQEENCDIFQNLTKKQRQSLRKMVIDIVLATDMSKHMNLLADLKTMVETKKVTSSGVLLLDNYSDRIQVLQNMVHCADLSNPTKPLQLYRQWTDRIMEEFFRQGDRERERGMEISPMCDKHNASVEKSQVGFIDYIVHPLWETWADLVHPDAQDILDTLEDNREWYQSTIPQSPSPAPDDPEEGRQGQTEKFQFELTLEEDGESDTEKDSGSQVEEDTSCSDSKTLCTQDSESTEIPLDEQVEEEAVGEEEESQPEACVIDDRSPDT
3',5'-cyclic-AMP phosphodiesterase 4C, sequence (Q08493 whole entry): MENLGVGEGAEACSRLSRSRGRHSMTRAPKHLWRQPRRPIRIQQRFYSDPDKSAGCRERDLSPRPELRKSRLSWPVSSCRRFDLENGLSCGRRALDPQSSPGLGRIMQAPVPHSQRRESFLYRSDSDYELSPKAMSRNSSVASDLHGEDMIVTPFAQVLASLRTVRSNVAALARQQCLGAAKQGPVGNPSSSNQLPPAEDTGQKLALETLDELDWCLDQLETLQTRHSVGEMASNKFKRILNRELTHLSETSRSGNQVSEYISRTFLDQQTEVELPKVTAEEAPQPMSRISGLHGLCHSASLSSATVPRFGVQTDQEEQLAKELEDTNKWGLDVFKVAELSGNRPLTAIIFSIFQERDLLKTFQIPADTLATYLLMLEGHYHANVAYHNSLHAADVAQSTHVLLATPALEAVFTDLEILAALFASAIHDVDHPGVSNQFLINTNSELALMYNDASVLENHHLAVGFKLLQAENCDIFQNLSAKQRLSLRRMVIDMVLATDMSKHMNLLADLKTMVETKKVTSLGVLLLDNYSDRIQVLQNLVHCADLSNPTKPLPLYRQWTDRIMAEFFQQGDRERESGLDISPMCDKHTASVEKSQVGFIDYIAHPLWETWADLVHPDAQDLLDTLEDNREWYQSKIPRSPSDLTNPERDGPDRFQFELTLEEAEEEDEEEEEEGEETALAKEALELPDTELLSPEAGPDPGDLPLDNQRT

The term inhibition denotes the change of the read-out against control, counted positive when it falls. Turning to `COc1ccc(/C=N/NS(=O)(=O)c2ccccc2)cc1OC`, the inhibition is less than 5% in data set [1], less than 5% in data set [2], 14.6% in data set [3] and 11.9% in the data set filed under Homo sapiens [5]. Further, the results for the Stabilty result in [4] and in data set [6] were “Unstable” and “Stable”, respectively.

Compound `CNC(=C[N+](=O)[O-])NCCSCc1ccc(CN(C)C)o1` [RANITIDINE] had a Drug absorption in data set [7] of 13.48%.

In turn, `O=C(O)Cc1ccccc1Nc1c(Cl)cccc1Cl` [DICLOFENAC] displayed a Drug absorption in data set [7] of 99.28%.

On to `COc1ccc(CCN(C)S(=O)(=O)c2ccccc2C)cc1OC`, for which the inhibition in data set [1] was 26.5%; in data set [2] it was 27.6%; in data set [3], less than 5%; in the data set filed under Homo sapiens [5], 25.9%. In addition, the Stabilty result in data set [4] and in [6] was “Stable” each time.

The EC50 is the concentration needed to bring the measured effect to its halfway point. In the case of `COc1ccc(C2CNC(=O)C2)cc1OC1CCCC1` (centres undefined) [ROLIPRAM], the EC50 was 64.6 nM in the data set with Trachea [8], 69.2 nM in the data set with Trachea [9], 26.3 nM in the data set with Trachea [10] and 31.6 nM with Trachea [11].

As to `COc1ccc(CCN(C)S(=O)(=O)c2ccc([N+](=O)[O-])cc2)cc1OC`, the inhibition in data set [1] is less than 5%; in [2], less than 5%; in data set [3] it was 19%; in the data set filed under Homo sapiens [5], less than 5%. Besides, the Stabilty result in [4] and in data set [6] was “Stable” throughout.

As a reminder, the Papp is a coefficient for how fast a substance crosses the barrier. Read a low Papp as slow passage. The compound `C[C@]12C=CC(=O)C=C1CC[C@@H]1[C@@H]2C(=O)C[C@@]2(C)[C@H]1CC[C@]2(O)C(=O)CO` [PREDNISONE] registered a Papp at 8 h in the data set “in vitro” of 3.09 ×10⁻⁶ cm/s.

As for `Nc1nc2c(ncn2COCCO)c(=O)[nH]1` [ACYCLOVIR], the Papp at 8 h in the data set “in vitro” is 0.08 ×10⁻⁶ cm/s.

Take `COc1ccc(/C=N/NS(=O)(=O)c2ccc(C(F)(F)F)cc2)cc1OC`: the inhibition in [1] is less than 5%; in data set [2] it was 19.7%; in [3] it was 29%; in the data set listed under Homo sapiens [5], less than 5%. Moreover, the values for the Stabilty entry in [4] and in data set [6] were “Unstable” and “Stable”, respectively.

Regarding `COc1ccc(/C=N/N(C)S(=O)(=O)c2ccccc2C)cc1OC`, the inhibition in [1] is less than 5%; in data set [2], 26.1%; in data set [3], 39.3%; in the data set listed under Homo sapiens [5], 16.2%. Further, the Stabilty result is reported as “Unstable” in data set [4] and “Stable” in [6].

On to `O=c1ccc2ccccc2o1` [COUMARIN], for which the Papp at 8 h in “in vitro” stood at 22.6 ×10⁻⁶ cm/s. The same compound showed a Drug absorption in data set [7] of 99.98%.

For `COc1ccc(/C=N/NS(=O)(=O)c2cc3c(cc2C)OCO3)cc1OC`, the inhibition was less than 5% in data set [1], 8.8% in data set [2], less than 5% in data set [3] and less than 5% in the data set filed under Homo sapiens [5]. The results for the Stabilty entry in data set [4] and in data set [6] were “Unstable” and “Stable”, respectively.

For the compound `COc1ccc(S(=O)(=O)N(C)/N=C/c2ccc(OC)c(OC)c2)cc1`, the inhibition in [1] is less than 5%; in [2], 12.8%; in data set [3], 43%; in the data set filed under Homo sapiens [5], 31.5%. In addition, the Stabilty result in [4] is “Unstable”; in [6] it was “Stable”.

As to `COc1ccc(CCNS(=O)(=O)c2ccc(OC)c(OC)c2)cc1OC`, the inhibition in [1] is less than 5%; in data set [2], 13.6%; in data set [3], 26%; in the data set listed under Homo sapiens [5] it was 11.3%. The Stabilty entry in [4] and in data set [6] was “Stable” in each case.

Take `COc1ccc(/C=N/NS(=O)(=O)c2ccccc2C)cc1OC`: the inhibition in data set [1] was less than 5%; in [2], 15.9%; in data set [3], 19.5%; in the data set filed under Homo sapiens [5], 8%. Moreover, the Stabilty entry in [4] was “Unstable”; in data set [6], “Stable”.

For the compound `COc1ccc(S(=O)(=O)N/N=C/c2ccc(OC)c(OC)c2)cc1`, the inhibition in data set [1] is less than 5%; in data set [2] it was 20.2%; in data set [3] it was 40.2%; in the data set filed under Homo sapiens [5], 35.2%. Also, the Stabilty entry is recorded as “Unstable” in data set [4] and “Stable” in data set [6].

Turning to `COc1ccc(CCNS(=O)(=O)c2ccc([N+](=O)[O-])cc2)cc1OC`, the inhibition in [1] was 13.8%; in data set [2] it was less than 5%; in [3], less than 5%; in the data set listed under Homo sapiens [5] it was less than 5%. Moreover, the Stabilty entry in data set [4] and in [6] was “Stable” throughout.

As for `COc1ccc(CCNS(=O)(=O)c2ccc3ccccc3c2)cc1OC`, the inhibition in data set [1] is less than 5%; in data set [2] it was 9.1%; in data set [3], 12.1%; in the data set filed under Homo sapiens [5] it was 30.4%. Moreover, the Stabilty result in data set [4] and in [6] was “Stable” each time.

As for `COc1ccc(S(=O)(=O)N(C)CCc2ccc(OC)c(OC)c2)cc1`, the inhibition was found to be 33% in data set [1], 35.6% in [2], 23.5% in data set [3] and 43% in the data set filed under Homo sapiens [5]. Moreover, the Stabilty entry in data set [4] and in data set [6] was “Stable” in each case.

Regarding `COc1ccc(CCN(C)S(=O)(=O)c2ccc(OC)c(OC)c2)cc1OC`, the inhibition in data set [1] amounted to 12%; in data set [2], 31.1%; in [3], 16.4%; in the data set listed under Homo sapiens [5], 36.1%. Also, the Stabilty entry in data set [4] and in data set [6] was “Stable” in each case.

One may read the inhibition in vivo as the percentage by which the read-out fell short of the control. The Emax is the greatest response seen or fitted, relative to the assay's reference. Broadly, the IC50 is the point on the concentration scale where inhibition reaches its midpoint. On to `COc1ccc(CCN(C)S(=O)(=O)c2ccc3ccccc3c2)cc1OC`, for which the inhibition came to 12.2% in data set [1], 50.1% in data set [2], 30.1% in [3] and 89.9% in the data set filed under Homo sapiens [5]. The inhibition in vivo at 25 µmol/kg in the data set with Mus musculus [12] was 97%; in the data set on Mus musculus [16], 58.9%. Also, the Emax in [13] was found to be 63%; in the data set filed under Homo sapiens [15], 97%. In addition, the inhibition in vivo at 6.25 µmol/kg was 0% with Mus musculus [14] and 95% in the data set on Mus musculus [18]. Further, the figures for the IC50 in [17] and in data set [19] were 35300 nM and 3000 nM, respectively. The Stabilty result in [4] and in data set [6] was “Stable” each time.

Take `COc1ccc(S(=O)(=O)NCCc2ccc(OC)c(OC)c2)cc1`: the inhibition was less than 5% in data set [1], 23.8% in data set [2], 20.7% in [3] and 11% in the data set listed under Homo sapiens [5]. The Stabilty result in [4] and in [6] was “Stable” throughout.

With `COc1ccc(CCNS(=O)(=O)c2ccc(-c3ccccc3)cc2)cc1OC`, the inhibition is less than 5% in [1], 10.8% in data set [2], less than 5% in data set [3] and 14.8% in the data set listed under Homo sapiens [5]. For the same compound, the Stabilty result in [4] and in data set [6] was “Stable” in each case.

For the compound `COc1ccc(CCNS(=O)(=O)c2ccccc2C)cc1OC`, the inhibition in [1] is less than 5%; in data set [2] it was less than 5%; in [3], less than 5%; in the data set filed under Homo sapiens [5], 6.1%. Moreover, the Stabilty result in data set [4] and in data set [6] was “Stable” throughout.

With `COc1ccc(CCN(C)S(=O)(=O)c2ccc(-c3ccccc3)cc2)cc1OC`, the inhibition was 7.1% in data set [1], 56.3% in [2], 26.6% in data set [3] and 46.8% in the data set filed under Homo sapiens [5]. Moreover, the inhibition in vivo at 25 µmol/kg in the data set on Mus musculus [12] stood at 80%; with Mus musculus [16] it was 55.1%. In addition, the values for the Emax (in [13]; in the data set filed under Homo sapiens [15]) were 60% and 65%, respectively. In addition, the inhibition in vivo at 6.25 µmol/kg turned out to be 22.2% in the data set on Mus musculus [14] and 95% with Mus musculus [18]. Also, in data set [17], the IC50 came out at 20800 nM. The Stabilty result in data set [4] and in data set [6] was “Stable” each time.

For the origin of these results see ChEMBL document CHEMBL4706524, “Discovery of sulfonyl hydrazone derivative as a new selective PDE4A and PDE4D inhibitor by lead-optimization approach on the prototype LASSBio-448: In vitro and in vivo preclinical studies” (Eur J Med Chem, 2020).
